From ChEMBL document CHEMBL1152474, “Synthesis and investigation of anti-inflammatory activity and gastric ulcerogenicity of novel nitric oxide-donating pyrazoline derivatives” (Eur J Med Chem, 2009) come the findings set out here.

Data set [1] is described as follows: Induction of NO release per mol of compound in phosphate buffer at pH 7.4 at 100 uM after 6 hrs by Griess assay. It counts as physicochemical. Conditions: pH 7.4, 6 h; call rule not given here.
Data set [2] in a line: Induction of NO release per mol of compound in phosphate buffer at pH 7.4 at 100 uM after 1 hr by Griess assay. Conditions: pH 7.4, 1 h. Format: physicochemical.
The nature of data set [3]: Induction of NO release per mol of compound in phosphate buffer at pH 7.4 at 100 uM after 4 hrs by Griess assay. Conditions: pH 7.4, 4 h. Format: physicochemical.
Data set [4] is described as follows: Induction of NO release in phosphate buffer at pH 1 at 100 uM by Griess assay. It counts as physicochemical. Conditions: pH 1, 100 µM.
Data set [5] deals with Rattus norvegicus. Nature of the data set: Antiinflammatory activity in albino rat assessed as inhibition of carrageenan-induced paw edema at 100 mg/kg, po treated for 30 mins measured after 2 hrs of carrageenan challenge. It counts as functional.
In data set [6] the test system is Rattus norvegicus. The data set can be described thus: Reduction in 1-(2-Bromopropionyl)-4,5-dihydro-5-(2,4-dimethoxyphenyl)-3-(3,4-dimethoxyphenyl)-1H-pyrazole-induced ulcer in albino rat at 100 mg/kg, po after 5 hrs. Format: functional. Details: scale not given: the % may be the effect or the level left.
Data set [7] concerns Rattus norvegicus. Nature of the data set: Gastrotoxicity in albino rat assessed as ulcer index at 100 mg/kg, po after 5 hrs. It counts as toxicity, organism-based. Details: dose 100 mg/kg, route oral. Conditions: in vivo.
Data set [8] concerns Rattus norvegicus. The data set can be described thus: Antiinflammatory activity in albino rat assessed as inhibition of carrageenan-induced paw edema at 100 mg/kg, po treated for 30 mins measured after 3 hrs of carrageenan challenge. Format: functional.
Data set [9] in a line: Induction of NO release per mol of compound in phosphate buffer at pH 7.4 at 100 uM after 2 hrs by Griess assay. It counts as physicochemical. Conditions: pH 7.4, 2 h.
Data set [10] in a line: Induction of NO release per mol of compound in phosphate buffer at pH 7.4 at 100 uM after 5 hrs by Griess assay. Format: physicochemical. Conditions: pH 7.4, 5 h.
Data set [11] has as its system Rattus norvegicus. Nature of the data set: Reduction in 4,5-Dihydro-5-(2,4-dimethoxyphenyl)-3-(3,4-dimethoxyphenyl)-1H-pyrazole-induced ulcer in albino rat at 100 mg/kg, po after 5 hrs. Details: scale not given: the % may be the effect or the level left. It counts as functional.
Data set [12] can be described thus: Induction of NO release per mol of compound in phosphate buffer at pH 7.4 at 100 uM after 3 hrs by Griess assay. Format: physicochemical. Conditions: pH 7.4, 3 h.
The test system of data set [13] is Rattus norvegicus. The data set can be described thus: Antiinflammatory activity in albino rat assessed as inhibition of carrageenan-induced paw edema at 100 mg/kg, po treated for 30 mins measured after 1 hr of carrageenan challenge. Format: functional.
Data set [14] concerns Rattus norvegicus. Nature of the data set: Reduction in 1-(2-Bromoacetyl)-5-(2,6-dichlorophenyl)-4,5-dihydro-3-(4-methoxyphenyl)-1H-pyrazole-induced ulcer in albino rat at 100 mg/kg, po after 5 hrs. Format: functional. Details: scale not given: the % may be the effect or the level left.
The test system of data set [15] is Rattus norvegicus. Nature of the data set: Reduction in 5-(2,6-Dichlorophenyl)-4,5-dihydro-3-(4-methoxyphenyl)-1H-pyrazole-induced ulcer in albino rat at 100 mg/kg, po after 5 hrs. It counts as functional. Details: scale not given: the % may be the effect or the level left.
Data set [16] relates to Rattus norvegicus. Nature of the data set: Reduction in 5-(2-furyl)-4,5-dihydro-3-(3,4-dimethoxyphenyl)-1H-pyrazole-induced ulcer in albino rat at 100 mg/kg, po after 5 hrs. Format: functional. Details: scale not given: the % may be the effect or the level left.
Data set [17] has as its system Rattus norvegicus. The data set can be described thus: Reduction in 1-(2-Bromopropionyl)-5-(2-furyl)-4,5-dihydro-3-(3,4-dimethoxyphenyl)-1H-pyrazole-induced ulcer in albino rat at 100 mg/kg, po after 5 hrs. Format: functional. The arrangement: scale not given: the % may be the effect or the level left.

Consider `COc1ccc(C2CC(c3ccc(OC)c(OC)c3)=NN2C(=O)C(C)O[N+](=O)[O-])c(OC)c1` (centres undefined), for which the NO release is 0.09 mol/mol in [1]; 0.098 mol/mol in data set [2]; 0.128 mol/mol in data set [3]; 0.16 mol/mol in [9]; 0.065 mol/mol in data set [10]; 0.438 mol/mol in data set [12]. For the same molecule, the Activity entry in data set [4] is reported as “Not Active”; with Rattus norvegicus [6], 86%; in the data set on Rattus norvegicus [11], 57%. In addition, the inhibition in vivo at 100 mg/kg turned out to be 61% in the data set with Rattus norvegicus [5], 56% with Rattus norvegicus [8] and 44% in the data set on Rattus norvegicus [13]. Moreover, the UI in the data set on Rattus norvegicus [7] worked out at 3.

In the case of `COc1ccc(C2=NN(C(=O)CO[N+](=O)[O-])C(c3c(Cl)cccc3Cl)C2)cc1` (centres undefined), the NO release in [1] came to 0.593 mol/mol; in data set [2], 0.195 mol/mol; in data set [3] it was 0.451 mol/mol; in data set [9], 0.295 mol/mol; in data set [10], 0.656 mol/mol; in [12], 0.356 mol/mol. Besides, the Activity in the data set with Rattus norvegicus [14] is reported as 93%; in data set [4], “Not Active”; in the data set on Rattus norvegicus [15], 96%. Further, the inhibition in vivo at 100 mg/kg in the data set on Rattus norvegicus [5] stood at 42%; with Rattus norvegicus [8], 52%; in the data set on Rattus norvegicus [13], 34%. In the data set on Rattus norvegicus [7], the UI worked out at 0.

Regarding `COc1ccc(C2=NN(C(=O)C(C)O[N+](=O)[O-])C(c3ccco3)C2)cc1OC` (centres undefined), the NO release in data set [1] is 0.087 mol/mol; in data set [2], 0.078 mol/mol; in [3], 0.2 mol/mol; in data set [9], 0.19 mol/mol; in data set [10], 0.125 mol/mol; in data set [12], 0.398 mol/mol. For the same molecule, the Activity entry in [4] is on record as “Not Active”; with Rattus norvegicus [16], 73%; in the data set on Rattus norvegicus [17], 30%. Besides, the results for the inhibition in vivo at 100 mg/kg in the data set with Rattus norvegicus [5], with Rattus norvegicus [8] and in the data set with Rattus norvegicus [13] were 39%, 42% and 35%, respectively. For the same molecule, the UI in the data set with Rattus norvegicus [7] was found to be 7.
